This note sets out measurements from patent publication US4181710A, “Rumen-stable pellets” (Eastman Kodak Company, priority 1978, dated 1980).

Values after ≈ are worked out from the molar mass of the structure shown.

The series can be described thus: Solubility of amino acids in water. To be noted: at 25° C. Type of series: physicochemical.

As usually defined, the solubility is the concentration that dissolves in the medium under given conditions. Low readings indicate a poorly soluble substance, high ones a readily soluble substance. With `CSCCC(N)C(=O)O` (racemic) [DL - Methionine], the solubility was determined as 40 mg/mL (≈ 268 mM). The figure for `CC(N)C(=O)O` (racemic) [DL - Alanine] is 167 mg/mL (≈ 1870 mM).
